Measurements: article PMC9286277, “Enzymatic measurement of short-chain fatty acids and application in periodontal disease diagnosis” (PLoS ONE, 2022)

What was measured:
Conditions in all cases: ATP, Mg2+; 0.1 M Tris-HCl pH 7.5; 37°C
[1] = target: T1, His-tagged BK (butyrate kinase; ToBKIII) (Thermosediminibacter oceani, UniProt D9S2G7); assay: coupled ADP-hexokinase/G6PDH NADPH assay; type: biochemical
T1 construct: gene buk; entire gene (about 1,100 bp, about 360 residues) NdeI/HindIII in pET21a(+), E. coli BL21(DE3), Ni column; C-terminal vector His tag; sense primer encodes N-terminus MTFYGILA; antisense primer encodes C-terminus EKPKEYL before HindIII site (KL)
T1 sequence (D9S2G7 1-357): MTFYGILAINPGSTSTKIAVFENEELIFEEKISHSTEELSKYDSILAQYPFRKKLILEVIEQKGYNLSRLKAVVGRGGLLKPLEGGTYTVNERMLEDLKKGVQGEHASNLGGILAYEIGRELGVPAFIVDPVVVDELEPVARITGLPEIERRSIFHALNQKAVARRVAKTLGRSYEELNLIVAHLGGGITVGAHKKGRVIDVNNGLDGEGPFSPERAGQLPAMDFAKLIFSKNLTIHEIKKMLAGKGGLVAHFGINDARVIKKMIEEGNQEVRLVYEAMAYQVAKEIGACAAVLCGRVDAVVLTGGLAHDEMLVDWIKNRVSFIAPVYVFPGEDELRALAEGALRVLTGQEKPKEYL
Source text: coupled ADP-hexokinase/G6PDH NADPH assay on His-tagged BK (butyrate kinase; ToBKIII)

PK (propionate kinase) = system: T2, PK (propionate kinase)
T2 construct: gene tdcD
Source text: coupled ADP-hexokinase/G6PDH NADPH assay on PK (propionate kinase)

AK (acetate kinase) = target: T3, AK (acetate kinase) (Escherichia coli, UniProt P0A6A3)
T3 construct: gene ackA
T3 sequence (P0A6A3 whole entry): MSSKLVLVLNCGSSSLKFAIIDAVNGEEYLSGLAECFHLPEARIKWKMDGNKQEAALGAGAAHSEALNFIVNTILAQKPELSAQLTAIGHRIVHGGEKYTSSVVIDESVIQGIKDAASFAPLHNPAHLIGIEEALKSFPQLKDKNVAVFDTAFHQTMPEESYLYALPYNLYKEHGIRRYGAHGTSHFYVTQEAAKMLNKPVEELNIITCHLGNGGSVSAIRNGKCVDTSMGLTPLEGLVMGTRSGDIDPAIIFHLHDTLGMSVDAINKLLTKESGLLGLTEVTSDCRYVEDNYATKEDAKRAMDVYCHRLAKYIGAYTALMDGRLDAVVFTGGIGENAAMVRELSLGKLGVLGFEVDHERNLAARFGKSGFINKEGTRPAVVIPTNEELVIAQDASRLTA
Source text: coupled ADP-hexokinase/G6PDH NADPH assay on AK (acetate kinase)

Row | BK / Km [1] [mmol] | PK / Km (PK (propionate kinase)) [mmol] | AK / Km (AK (acetate kinase)) [mmol] | Compound
1 | 2.1 | – | – | CC(C)CC(=O)O [IC5, isovaleric acid]
2 | 3.2 | – | – | CC(C)C(=O)O [IC4, isobutyric acid]

The remaining lines, values behind:

Row | Compound | BK / Km [1] [mmol] | PK / Km (PK (propionate kinase)) [mmol] | AK / Km (AK (acetate kinase)) [mmol]
3 | CCCCC(=O)O [C5, valeric acid] | 3.3 | – | –
4 | CCC(=O)O [C3, propionic acid] | 5.1 | 1.8 | –
5 | CCCCCC(=O)O [C6, caproic acid] | 8.7 | – | –
6 | CC(=O)O [C2, acetic acid] | – | 13.2 | 9.1
7 | CCCC(=O)O [C4, butyric acid] | 2.2 | 280 | –
